Measured values reported in US8952024B2, “Herbicidal pyrimidone derivatives” (E I du Pont de Nemours and Company, priority 2009, dated 2015).

How the values were obtained:
Format in all cases: in vivo
corn (Zea mays) = test: Test A pre-/postemergence plant response
Procedure, shortened: (§1)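 Plants grown from seed in a loam soil and sand mix received test compounds both as a preemergence soil spray and, at the same time, as a postemergence spray at the one- to two-leaf stage. Injury was judged visually against untreated controls roughly ten days later, 0 meaning no effect and 100 complete control.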

[1] = system: barnyardgrass (Echinochloa crus-galli); test: Test A pre-/postemergence plant response
Procedure, shortened: as §1

[2] = system: velvetleaf (Abutilon theophrasti); test: Test A pre-/postemergence plant response
Procedure, shortened: as §1

[3] = system: giant foxtail (Setaria faberii); test: Test A pre-/postemergence plant response
Procedure, shortened: as §1

[4] = system: large crabgrass (Digitaria sanguinalis); test: Test A pre-/postemergence plant response
Procedure, shortened: as §1

[5] = system: wheat (Triticum aestivum); test: Test A pre-/postemergence plant response
Procedure, shortened: as §1

[6] = system: sunflower (common oilseed sunflower, Helianthus annuus); test: Test B pre-/postemergence plant response; settings: Preemergence; for Sunflower plant response rating: 250 g ai/ha, 0 to 100 scale
Procedure, shortened: (§2)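 Visual injury, 0–100 scale (100 = complete control), rated against controls after 13 to 15 days in greenhouse. Pre-emergence: seeds in loam/sand soil, treated at planting. Post-emergence: 1- to 4-leaf plants (2 to 18 cm) in peat/vermiculite medium. Compounds formulated in non-phytotoxic solvent with surfactant.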

[7] = system: nightshade (eastern black nightshade, Solanum ptycanthum); test: Test B pre-/postemergence plant response; settings: Preemergence; for Nightshade plant response rating: 250 g ai/ha, 0 to 100 scale
Procedure, shortened: as §2

[8] = system: galium (catchweed bedstraw, Galium aparine); test: Test B pre-/postemergence plant response; settings: for Galium plant response rating: 0 to 100 scale
Procedure, shortened: as §2

[9] = system: canarygrass (Phalaris minor); test: Test B postemergence plant response; settings: Postemergence
Procedure, shortened: (§3)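 Plants grown in peat/vermiculite medium were sprayed postemergence at 2–18 cm height (1- to 4-leaf stage). After 13–15 days in the greenhouse, response was rated visually against untreated controls on a 0–100 scale (0 no effect, 100 complete control).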

[10] = system: winter barley (Hordeum vulgare); test: Test B postemergence plant response; settings: Postemergence
Procedure, shortened: as §3

[11] = system: chickweed (Stellaria media); test: Test B postemergence plant response; settings: Postemergence
Procedure, shortened: as §3

[12] = system: windgrass (Apera spica-venti); test: Test B postemergence plant response; settings: Postemergence
Procedure, shortened: as §3

[13] = Postemergence, 125 g ai/ha, 0 to 100 scale where 0 is no effect and 100 is complete control
[14] = Postemergence, 500 g ai/ha, visual injury, 0 to 100 scale (0 no effect, 100 complete control), approx. ten days
[15] = Preemergence, 125 g ai/ha, 0 to 100 scale, 0 = no effect, 100 = complete control
[16] = Preemergence, 500 g ai/ha, 0 to 100 scale, 0 = no effect, 100 = complete control
[17] = 31 g ai/ha, scale 0 to 100 (0 no effect, 100 complete control)
[18] = 62 g ai/ha, scale 0 to 100, 0 no effect, 100 complete control
[19] = 125 g ai/ha, scale 0 to 100, 0 no effect, 100 complete control
[20] = Preemergence, 31 g ai/ha, scale 0 to 100 (0 no effect, 100 complete control)
[21] = Preemergence, 62 g ai/ha, scale 0 to 100, 0 no effect, 100 complete control
[22] = Preemergence, 125 g ai/ha, scale 0 to 100, 0 no effect, 100 complete control
[23] = 31 g ai/ha, 0 to 100 scale (0 no effect, 100 complete control)
[24] = 125 g ai/ha, scale 0 to 100 (0 no effect, 100 complete control)
[25] = 250 g ai/ha, scale 0 to 100 (0 no effect, 100 complete control), 13 to 15 days
[26] = 62 g ai/ha, scale 0 to 100 (0 no effect, 100 complete control)
[27] = Postemergence, 1000 g ai/ha, 0 to 100 scale, 0 = no effect, 100 = complete control, approx. ten days
[28] = Preemergence, 1000 g ai/ha, visual injury, 0 to 100 scale (0 no effect, 100 complete control), approx. ten days

CCCCn1c(C2CC2)ncc(C(=O)C2=C(O)CCCC2=O)c1=O [Compound 193]
98: Plant response rating, Chickweed [11, 26]
100: Barnyardgrass plant response rating [1, 14] | Plant response rating, Velvetleaf [2, 13] | Velvetleaf plant response rating [2, 14] | Plant response rating, Velvetleaf [2, 15] | Plant response rating, Velvetleaf [2, 16] | Foxtail, Giant plant response rating [3, 14] | Plant response rating, Crabgrass, Large [4, 13] | Crabgrass, Large plant response rating [4, 14] | Plant response rating, Crabgrass, Large [4, 16] | Plant response rating, Nightshade [7, 17] | Plant response rating, Nightshade [7, 18] | Plant response rating, Nightshade [7, 19] | Nightshade plant response rating [7] | Plant response rating, Galium [8, 21] | Plant response rating, Galium [8, 22] | Galium plant response rating ([8]; Preemergence, 250 g ai/ha) | Plant response rating, Chickweed [11, 24] | Plant response rating, Chickweed [11, 25]
75: Plant response rating, Galium ([8]; Postemergence, 31 g ai/ha, 0 to 100 scale (0 no effect, 100 complete control)) | Plant response rating, Galium [8, 20] | Plant response rating, Windgrass [12, 25]
5: Plant response rating, Canarygrass [9, 23] | Plant response rating, Canarygrass [9, 26]
80: Plant response rating, Barnyardgrass [1, 15] | Plant response rating, Sunflower [6, 18] | Plant response rating, Sunflower [6, 19]
40: Corn plant response rating (corn (Zea mays); [14]) | Plant response rating, Wheat [5, 13]
70: Wheat plant response rating [5, 14] | Plant response rating, Sunflower [6, 17] | Plant response rating, Windgrass [12, 26]
95: Sunflower plant response rating [6] | Plant response rating, Chickweed [11, 23]
0: Plant response rating, Corn (corn (Zea mays); [15]) | Plant response rating, Corn (corn (Zea mays); [16]) | Plant response rating, Wheat [5, 15] | Plant response rating, Barley [10, 23] | Plant response rating, Barley [10, 26]
25: Plant response rating, Canarygrass [9, 24] | Plant response rating, Canarygrass [9, 25]
50: Plant response rating, Wheat [5, 16] | Plant response rating, Barley [10, 24] | Plant response rating, Barley [10, 25] | Plant response rating, Windgrass [12, 23]
10: Plant response rating, Corn (corn (Zea mays); [13])
90: Plant response rating, Barnyardgrass [1, 13] | Plant response rating, Barnyardgrass [1, 16] | Plant response rating, Foxtail, Giant [3, 13] | Plant response rating, Foxtail, Giant [3, 15] | Plant response rating, Foxtail, Giant [3, 16] | Plant response rating, Crabgrass, Large [4, 15] | Plant response rating, Galium ([8]; Postemergence, 125 g ai/ha, scale 0 to 100 (0 no effect, 100 complete control)) | Plant response rating, Galium ([8]; Postemergence, 250 g ai/ha, scale 0 to 100 (0 no effect, 100 complete control), 13 to 15 days)

CCCc1ncc(C(=O)C2=C(O)CCCC2=O)c(=O)n1-c1ccccc1 [Compound 217]
75: Plant response rating, Sunflower [6, 18] | Plant response rating, Chickweed [11, 23]
5: Plant response rating, Barley [10, 26]
80: Plant response rating, Barnyardgrass [1, 28] | Plant response rating, Foxtail, Giant [3, 27] | Plant response rating, Foxtail, Giant [3, 28]
50: Plant response rating, Windgrass [12, 23] | Plant response rating, Windgrass [12, 26]
95: Plant response rating, Nightshade [7, 17] | Plant response rating, Chickweed [11, 26]
20: Plant response rating, Canarygrass [9, 24] | Plant response rating, Canarygrass [9, 25] | Plant response rating, Canarygrass [9, 26]
40: Plant response rating, Corn (corn (Zea mays); [27]) | Plant response rating, Wheat [5, 27]
70: Plant response rating, Sunflower [6, 17] | Plant response rating, Galium [8, 22]
30: Plant response rating, Wheat [5, 28]
100: Plant response rating, Velvetleaf [2, 27] | Plant response rating, Velvetleaf [2, 28] | Plant response rating, Crabgrass, Large [4, 27] | Plant response rating, Crabgrass, Large [4, 28] | Plant response rating, Nightshade [7, 18] | Plant response rating, Nightshade [7, 19] | Nightshade plant response rating [7] | Plant response rating, Chickweed [11, 24] | Plant response rating, Chickweed [11, 25]
90: Plant response rating, Barnyardgrass [1, 27] | Galium plant response rating ([8]; Preemergence, 250 g ai/ha)
85: Plant response rating, Sunflower [6, 19] | Sunflower plant response rating [6] | Plant response rating, Windgrass [12, 25]
0: Plant response rating, Corn (corn (Zea mays); [28]) | Plant response rating, Galium [8, 20] | Plant response rating, Canarygrass [9, 23] | Plant response rating, Barley [10, 23]
10: Plant response rating, Galium [8, 21] | Plant response rating, Barley [10, 24] | Plant response rating, Barley [10, 25]

CCc1cccc(-n2c(-c3ccccc3)ncc(C(=O)C3=C(O)CCCC3=O)c2=O)c1 [Compound 220]
70: Plant response rating, Sunflower [6, 19]
65: Plant response rating, Nightshade [7, 17]
50: Plant response rating, Crabgrass, Large [4, 13] | Plant response rating, Galium [8, 21]
45: Plant response rating, Sunflower [6, 18]
15: Plant response rating, Barley [10, 25]
5: Plant response rating, Windgrass [12, 23]
30: Corn plant response rating (corn (Zea mays); [14]) | Plant response rating, Canarygrass [9, 25]
98: Plant response rating, Nightshade [7, 19] | Plant response rating, Chickweed [11, 24]
10: Plant response rating, Corn (corn (Zea mays); [16]) | Plant response rating, Barnyardgrass [1, 15] | Plant response rating, Canarygrass [9, 23] | Plant response rating, Canarygrass [9, 24] | Plant response rating, Canarygrass [9, 26] | Plant response rating, Barley [10, 23] | Plant response rating, Barley [10, 24] | Plant response rating, Barley [10, 26]
20: Plant response rating, Foxtail, Giant [3, 13] | Plant response rating, Crabgrass, Large [4, 15] | Wheat plant response rating [5, 14]
40: Plant response rating, Velvetleaf [2, 15] | Plant response rating, Foxtail, Giant [3, 16] | Plant response rating, Windgrass [12, 26]
100: Plant response rating, Velvetleaf [2, 13] | Velvetleaf plant response rating [2, 14] | Plant response rating, Velvetleaf [2, 16] | Nightshade plant response rating [7] | Galium plant response rating ([8]; Preemergence, 250 g ai/ha) | Plant response rating, Chickweed [11, 25]
95: Plant response rating, Chickweed [11, 23] | Plant response rating, Chickweed [11, 26]
90: Plant response rating, Barnyardgrass [1, 13] | Barnyardgrass plant response rating [1, 14] | Plant response rating, Barnyardgrass [1, 16] | Crabgrass, Large plant response rating [4, 14] | Plant response rating, Crabgrass, Large [4, 16] | Sunflower plant response rating [6] | Plant response rating, Nightshade [7, 18] | Plant response rating, Galium [8, 22]
60: Foxtail, Giant plant response rating [3, 14] | Plant response rating, Windgrass [12, 25]
0: Plant response rating, Corn (corn (Zea mays); [13]) | Plant response rating, Corn (corn (Zea mays); [15]) | Plant response rating, Foxtail, Giant [3, 15] | Plant response rating, Wheat [5, 13] | Plant response rating, Wheat [5, 15] | Plant response rating, Wheat [5, 16] | Plant response rating, Sunflower [6, 17] | Plant response rating, Galium [8, 20]
